Assay results taken from US11827917B1, “Methods for the conversion of fermentable sugars to ethanol” (Colorado State University Research Foundation, priority 2020, dated 2023).
“Also recorded” adds a separate entry of the source. Marks after values point to notes of the source that are not given here.

Legend:
S. cerevisiae JAY 270 [1] = test: Serum-bottle cultivation in YPD: biomass, glycerol, ethanol yields; type: cell-based, Saccharomyces cerevisiae
Experimental: Procedure: Cultivations in serum bottles were used to determine the effect of the best-performing screened chemicals on the ethanol yield. S. cerevisiae JAY 270 was pre-cultured in 100 mL of YPD medium in 200-mL serum bottles overnight in a shaker at 30° C. and 200 rpm. The precultured yeast cells were collected and washed twice as described above. The cell pellet was resuspended in about 10 mL of 0.8% (w/v) NaCl and the cell concentration was estimated as OD600. TyrOH, PheOH, and TrpOH were added to 30 mL of YPD medium in 100-mL serum bottles at 0.05% and 0.2% respectively. The same amount of DMSO was added to YPD medium to serve as the control for TrpOH and TyrOH treatments. The bottles were inoculated with the prepared yeast cells to obtain an initial cell concentration of OD600=0.2. The serum bottles were sealed and cultured in a shaker at 30° C. and 200 rpm for 24 h. Each condition had three biological replicates.
Analytical methods: Cell growth was evaluated by monitoring OD600 and cell dry mass concentration. For dry mass measurements, 1.0 mL of culture was transferred to a pre-dried and pre-weighed 2-mL centrifuge tube. The tubes were centrifuged for 10 min at 14000 rpm using a microcentrifuge, and then the cell pellets were dried in an oven for 3 days at 65° C. The cell dry mass was determined by subtracting the initial tube mass from the dried mass of tube with cells. The concentrations of glucose, ethanol, and glycerol were measured via HPLC (Shimadzu LC20A series) outfitted with a refractive index detector and using an Aminex HPX-87H (300×7.8 mm) organic acid column and Cation H+ guard cartridge (Bio Rad Laboratories, Hercules, CA). The column was maintained at 65° C. and the mobile phase was 5 mM sulfuric acid with a flow rate of 0.6 mL/min. Standard compound solutions were used to calibrate the HPLC. Each sample was analyzed three times by HPLC.

S. cerevisiae JAY 270 [2] = test: Screening of growth in 24-well plates on YPDA; type: cell-based, Saccharomyces cerevisiae; conditions: for Cell growth score (colony size): YPDA, 30° C., 24 h
Experimental: Procedure: An inoculum culture of S. cerevisiae JAY 270 was grown in 100 mL of yeast extract-peptone-dextrose (YPD) medium (10 g/L yeast extract, 20 g/L peptone, 20 g/L glucose) in 200-mL serum bottles overnight in a shaker at 30° C. and 200 rpm. The cells were collected by centrifuging 10 min at 4000×g and 4° C. To wash off the medium residue, the cell pellet was resuspended in 30 mL of sterile 0.8% (w/v) NaCl solution and centrifuged at 4000×g for 10 min. The cell pellet was washed twice. Finally, the cell pellet was resuspended and diluted in 0.8% (w/v) NaCl to achieve cell concentrations of OD600=0.02 and 0.2.
The eight compounds were added in YPDA separately at 0.03%, 0.05%, 0.1%, and 0.2% (w/v). The standard control treatment contained only YPDA medium without addition of these compounds. Since the TrpOH and TyrOH stock solutions were dissolved in DMSO, the controls for those tests were YPDA with the same concentration of DMSO. A 3-mL aliquot of YPDA medium with or without the test compounds were loaded in each well of the 24-well plate.
Ten μL of the prepared S. cerevisiae JAY 270 cell suspension at OD600=0.02 or 0.2 was loaded onto the YPDA medium in each well of the 24-well plates. Then the plates were sealed with Parafilm and incubated at 30° C. for 24 h. There were four biological replicates for each treatment.
Yeast cell growth was evaluated by visual observation of the colony size in the well and scored as 0, +, ++, and +++.

yeast = test: Yeast growth and ethanol yield in serum bottles, low/high cell inoculum (Tables 5, 6); type: cell-based; conditions: for EtOH yield / EtOH yield % Δ from control: 48 h test
S. cerevisiae JAY 270 [3] = test: Growth test in liquid YNB medium, low/high nitrogen, serum bottles; type: cell-based, Saccharomyces cerevisiae; conditions: 40, 200, 1000 mg/L; low and high nitrogen media
Experimental: A second set of tests was performed in a defined liquid medium, Yeast Nitrogen Base with Glucose (YNB), containing (NH4)2SO4 at either low (1 mM) or high (10 mM) nitrogen content. […] All serum bottles were incubated in a shaker at 30° C. and 150 RPM. Each treatment was performed in biological duplicate. Samples were collected at 0, 5, and 10 hours.

[4] = 0.05% (w/v), YPD, serum bottles
[5] = 0.05%, high cell inoculum (OD600 at 0 h 0.85)
[6] = 0.05%, low cell inoculum (OD600 at 0 h 0.30)
[7] = 0.1%, high cell inoculum (OD600 at 0 h 0.85)
[8] = 0.1%, low cell inoculum (OD600 at 0 h 0.30)
[9] = 0.2%, high cell inoculum (OD600 at 0 h 0.85)
[10] = 0.2%, low cell inoculum (OD600 at 0 h 0.30)

OCCc1c[nH]c2ccccc12 [TrpOH, tryptophol]
Biomass Yield (S. cerevisiae JAY 270 [1]; [4]): 0.078 + 0.001 g/g | Biomass yield % change vs. control (S. cerevisiae JAY 270 [1]; [4]): −22* % | EtOH yield (S. cerevisiae JAY 270 [1]; [4]): 0.41 ± 0.01 g/g | EtOH yield % change vs. control (S. cerevisiae JAY 270 [1]; [4]): 7.9* % | Glycerol yield (S. cerevisiae JAY 270 [1]; [4]): 0.027 ± 0.001 g/g | Glycerol yield % change vs. control (S. cerevisiae JAY 270 [1]; [4]): −20* % | Biomass yield vs. reference (S. cerevisiae JAY 270 [1]; 0.05%, YPD, serum bottles): −22.0% | Ethanol yield (S. cerevisiae JAY 270 [1]; 0.05%, YPD, serum bottles): 0.41 ± 0.01 g/g | Ethanol yield vs. reference (S. cerevisiae JAY 270 [1]; 0.05%, YPD, serum bottles): 7.9% | Glycerol yield (S. cerevisiae JAY 270 [1]; 0.05%, YPD, serum bottles): 0.027 ± 0.001 g/g | Glycerol yield vs. reference (S. cerevisiae JAY 270 [1]; 0.05%, YPD, serum bottles): −19.6% | OD600 (S. cerevisiae JAY 270 [1]; 0.05%, YPD, serum bottles): 3.01 | Effect on yeast cell growth (S. cerevisiae JAY 270 [1]; 0.2%): reduced yeast cell growth | Biomass Yield (S. cerevisiae JAY 270 [1]; 0.2% (w/v), YPD, serum bottles): 0.042 + 0.006 g/g | Biomass yield % change vs. control (S. cerevisiae JAY 270 [1]; 0.2% (w/v), YPD, serum bottles): −58* % | EtOH yield (S. cerevisiae JAY 270 [1]; 0.2% (w/v), YPD, serum bottles): 0.41 ± 0.01 g/g | EtOH yield % change vs. control (S. cerevisiae JAY 270 [1]; 0.2% (w/v), YPD, serum bottles): 10* % | Glycerol yield (S. cerevisiae JAY 270 [1]; 0.2% (w/v), YPD, serum bottles): 0.027 ± 0.009 g/g | Glycerol yield % change vs. control (S. cerevisiae JAY 270 [1]; 0.2% (w/v), YPD, serum bottles): −22* % | Biomass yield vs. reference (S. cerevisiae JAY 270 [1]; 0.2%, YPD, serum bottles): −58.2% | Effect on ethanol yield (S. cerevisiae JAY 270 [1]; 0.2%, YPD, serum bottles): increased the ethanol yield significantly | Ethanol yield (S. cerevisiae JAY 270 [1]; 0.2%, YPD, serum bottles): 0.41 ± 0.01 g/g | Ethanol yield vs. reference (S. cerevisiae JAY 270 [1]; 0.2%, YPD, serum bottles): 10.3% | Glycerol yield (S. cerevisiae JAY 270 [1]; 0.2%, YPD, serum bottles): 0.027 ± 0.009 g/g | Glycerol yield vs. reference (S. cerevisiae JAY 270 [1]; 0.2%, YPD, serum bottles): −21.9% | OD600 (S. cerevisiae JAY 270 [1]; 0.2%, YPD, serum bottles): 1.52 | Cell growth score (colony size) (S. cerevisiae JAY 270 [2]; 0.03% (w/v)): +++ | Cell growth score (colony size) (S. cerevisiae JAY 270 [2]; 0.05% (w/v)): ++ | Cell growth score (colony size) (S. cerevisiae JAY 270 [2]; 0.10% (w/v)): + | Cell growth score (colony size) (S. cerevisiae JAY 270 [2]; 0.20% (w/v)): 0 | Concentration at which cell growth was reduced in the plate assay (S. cerevisiae JAY 270 [2]; molar equivalent of the % w/v value): 3.1 mM | Effect on cell growth in the plate assay (words) (S. cerevisiae JAY 270 [2]; tested concentrations, 24-well plates): inhibited growth; also recorded: reduced the growth | Concentration at which cell growth was reduced/inhibited in the plate assay (S. cerevisiae JAY 270 [2]; w/v, 24-well plates): 0.05% | OD600 at 48 h (yeast; [5]): 2.47 | EtOH yield (yeast; [5]): 0.52 g/g | EtOH yield % Δ from control (yeast; [5]): 4.6% | OD600 at 48 h (yeast; [6]): 1.17 | EtOH yield (yeast; [6]): 0.50 g/g | EtOH yield % Δ from control (yeast; [6]): 5.7% | OD600 at 48 h (yeast; [7]): 1.87 | EtOH yield (yeast; [7]): 0.54 g/g | EtOH yield % Δ from control (yeast; [7]): 7.6% | OD600 at 48 h (yeast; [8]): 0.79 | EtOH yield (yeast; [8]): 0.50 g/g | EtOH yield % Δ from control (yeast; [8]): 2.2% | OD600 at 48 h (yeast; [9]): 1.40 | EtOH yield (yeast; [9]): 0.51 g/g | EtOH yield % Δ from control (yeast; [9]): 1.9% | OD600 at 48 h (yeast; [10]): 0.51 | EtOH yield (yeast; [10]): 0.52 g/g | EtOH yield % Δ from control (yeast; [10]): 5.9% | Inhibitory effect on yeast cell growth in liquid YNB medium (S. cerevisiae JAY 270 [3]): strongest inhibitory effect
